The text below walks through data of patent US12122785B2, “Substituted pyridines, pyridazines, pyrimidines, and 1,2,4-triazines as TYK2 inhibitors” (Sudo Biosciences Limited, priority 2021, dated 2024).

Where only a bound is given, the exact number is not on record here.

For experiment [1], the system named is TYK2 pseudokinase (JH2); IFNα-stimulated HEK-Blue IFNα/β cells. The experiment can be described thus: HEK-Blue IFNα/β reporter assay (STAT1-inducible SEAP) for profiling TYK2 pseudokinase (JH2) inhibition. It is filed as cell-based. The following applies: 1 ng/mL human recombinant IFNα, SEAP readout, read-out: IFNα (TYK2 inhibitory activity, IC50). An outline of the steps: (§1)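 Cells were pretreated 60 min with serially diluted compounds, then stimulated with 10 ng/mL human IL-23 for 22-24 hours (STAT3 line) or 1 ng/mL human IFNα for 16-18 h (STAT1 line). SEAP induction read with QUANTI-Blue.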
(Reporter assays use an easily measured gene product as a stand-in for the process of interest.)

Experiment [2] has as its system TYK2 pseudokinase (JH2); IL-23-stimulated HEK-Blue IL-23 cells. The experiment is described as follows: HEK-Blue IL-23 reporter assay (STAT3-inducible SEAP) for profiling TYK2 pseudokinase (JH2) inhibition. It is filed as cell-based. The following applies: 10 ng/mL human recombinant IL-23, SEAP readout, read-out: IL23 (TYK2 inhibitory activity, IC50). In outline:
as §1

In experiment [3] the test system is IFNγ-stimulated HEK-Blue IFNγ reporter cells. The experiment can be described thus: HEK-Blue IFNγ reporter assay (STAT1-inducible SEAP) for determining selectivity. It is filed as cell-based. The following applies: 50 ng/mL human recombinant IFNγ, 24 hours, read-out: IFN-γ SEAP selectivity assay IC50. An outline of the steps:
(§2)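 Cells were plated for 20-22 h, then pretreated with serially diluted compound for 60 min. They were stimulated for 24 h with 4 ng/mL human recombinant IL-2 or 50 ng/mL human recombinant IFNγ, and SEAP induction was read with QUANTI-Blue.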

The test system of experiment [4] is IL-2-stimulated HEK-Blue IL-2 reporter cells. The experiment can be described thus: HEK-Blue IL-2 reporter assay (STAT5-inducible SEAP) for determining selectivity. It is filed as cell-based. The following applies: 4 ng/mL human recombinant IL-2, 24 hours. An outline of the steps:
as §2

The next experiment has as its target T1, JAK3 kinase domain (JH1) (Homo sapiens, UniProt P52333).
T1 construct: recombinant purified His or GST-tagged catalytic domain for each enzyme; purchased Carna biosciences 08-046
The experiment can be described thus: HTRF-based selectivity assay, JAK3 catalytic domain. It is filed as biochemical. The following applies: 2.12 μM ATP. How it is done:
(§3) Example B-2: HTRF-Based Selectivity Assay
(§4) The ability of compounds to inhibit the activity of JAK1, JAK2, JAK3 and TYK2 is measured using a recombinant purified His or GST-tagged catalytic domain for each enzyme (JAK1, JAK2 and TYK2 are generated in-house; JAK3 was purchased from Carna biosciences, Cat #08-046) in an HTRF format biochemical assay. The reactions employs a commercial peptide substrate from Cisbio (Cat #62TK0PEC). The basic assay protocol is as follows: first, 2.5 μL of diluted compounds (4×) in DMSO are dispensed into a 384-well Optiplate. Next, 2.5 μL of enzyme (final concentrations for enzymes are: TYK2—700 ng/mL, JAK1—80.6 ng/mL, JAK2—2.1 ng/mL and JAK3—171.8 ng/mL) is added and incubated at RT for 5-20 min. Finally, 5 μl of mixture of 2×ATP [Final concentration 20 μM for TYK2, 21.43 μM for JAK1, 14.7 μM for JAK2 and 2.12 μM for JAK3]+2× Substrate [Final concentration 217 nM for TYK2, 454.7 nM for JAK1, 200 nM for JAK2 and 257.4 nM for JAK3] is added to 384 well Optiplate. Composition of Kinase assay buffer used in the assay is as follows: HEPES 50 mM, EGTA 1 mM, MgCl2 10 mM, DTT 2 mM, Tween-20 0.01% and water. Then the plates are shaken and then incubated at 26.5° C. for 60 min.
(In TR-FRET formats the signal depends on donor and acceptor labels being close together.)

For another experiment, the target named is T2, JAK1 kinase domain (JH1) (Homo sapiens, UniProt P23458).
T2 construct: recombinant purified His or GST-tagged catalytic domain for each enzyme; made in house
The experiment can be described thus: HTRF-based selectivity assay, JAK1 catalytic domain. The following applies: 21.43 μM ATP, read-out: JAK-JHI (IC50). It is filed as biochemical. How it is done: as §3, §4

The target in a further experiment is T3, JAK2 kinase domain (JH1) (Homo sapiens, UniProt O60674).
T3 construct: recombinant purified His or GST-tagged catalytic domain for each enzyme; made in house
The experiment can be described thus: HTRF-based selectivity assay, JAK2 catalytic domain. It is filed as biochemical. The following applies: 14.7 μM ATP. The protocol:
as §3, §4

The next experiment concerns the target T4, TYK2 kinase domain (JH1) (Homo sapiens, UniProt P29597).
T4 construct: recombinant purified His or GST-tagged catalytic domain for each enzyme; made in house
T4 sequence (P29597 897-1176 limits assumed): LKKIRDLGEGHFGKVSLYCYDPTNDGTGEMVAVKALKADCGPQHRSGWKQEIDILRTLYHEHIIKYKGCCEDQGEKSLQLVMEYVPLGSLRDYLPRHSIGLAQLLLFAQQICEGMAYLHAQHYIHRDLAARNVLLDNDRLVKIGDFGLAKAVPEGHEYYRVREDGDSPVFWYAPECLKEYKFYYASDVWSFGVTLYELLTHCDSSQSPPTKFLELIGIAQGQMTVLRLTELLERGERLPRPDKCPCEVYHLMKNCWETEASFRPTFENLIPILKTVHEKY
The experiment is described as follows: HTRF-based selectivity assay, TYK2 catalytic domain. It is filed as biochemical. The following applies: 20 μM ATP. The protocol: as §3, §4

T2 sequence (P23458 875-1153 limits assumed): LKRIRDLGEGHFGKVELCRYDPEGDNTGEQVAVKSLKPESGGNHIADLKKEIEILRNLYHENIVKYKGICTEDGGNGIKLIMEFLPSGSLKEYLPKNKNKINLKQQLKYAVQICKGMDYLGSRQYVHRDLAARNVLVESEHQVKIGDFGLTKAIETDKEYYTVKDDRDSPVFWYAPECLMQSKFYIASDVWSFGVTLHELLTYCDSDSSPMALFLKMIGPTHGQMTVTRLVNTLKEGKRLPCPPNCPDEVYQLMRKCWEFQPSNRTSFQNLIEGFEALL
T1 sequence (P52333 822-1111 limits assumed): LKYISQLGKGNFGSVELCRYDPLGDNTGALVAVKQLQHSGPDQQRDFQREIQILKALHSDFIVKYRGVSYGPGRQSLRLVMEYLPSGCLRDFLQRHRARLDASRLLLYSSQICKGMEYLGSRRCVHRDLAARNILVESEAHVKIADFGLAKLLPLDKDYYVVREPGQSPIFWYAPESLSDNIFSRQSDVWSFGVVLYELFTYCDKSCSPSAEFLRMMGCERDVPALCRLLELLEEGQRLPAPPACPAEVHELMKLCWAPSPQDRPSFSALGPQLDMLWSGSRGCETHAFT
T3 sequence (O60674 849-1124 limits assumed): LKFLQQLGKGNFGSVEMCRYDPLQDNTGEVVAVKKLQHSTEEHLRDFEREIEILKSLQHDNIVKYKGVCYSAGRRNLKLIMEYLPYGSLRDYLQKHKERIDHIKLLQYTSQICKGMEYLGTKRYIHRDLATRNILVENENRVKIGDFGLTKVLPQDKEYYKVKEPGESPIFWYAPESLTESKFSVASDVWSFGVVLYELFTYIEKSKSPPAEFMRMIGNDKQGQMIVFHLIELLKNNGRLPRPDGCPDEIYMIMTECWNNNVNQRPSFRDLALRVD

By IC50 is commonly meant the point on the concentration scale where inhibition reaches its midpoint. For the molecule `[2H]C([2H])([2H])NC(=O)c1nnc(NC(=O)C2CC2)cc1Nc1nccc2c1N(C)Cc1cn(C)nc1-2` [Compound 65, 6-(cyclopropanecarboxamido)-4-((2,5-dimethyl-4,5-dihydro-2H-pyrazolo[4,3-c][1,7]naphthyridin-6-yl)amino)-N-(methyl-d3)pyridazine-3-carboxamide], the IC50 in experiment [1] was under 0.03 µM; in experiment [2], under 0.03 µM; in experiment [3] it was 0.03 to 0.3 µM; in experiment [4], over 1 µM; against JAK3 kinase domain (JH1), over 1 µM; at JAK1 kinase domain (JH1) it was over 1 µM. The IC50 against JAK2 kinase domain (JH1) and against TYK2 kinase domain (JH1) was over 1 µM each time.

As to `[2H]C([2H])([2H])NC(=O)c1cnc(NC(=O)C2CC2)cc1Nc1cccc2c1N(C)Cc1cn(C([2H])([2H])[2H])nc1-2` [Compound 19, 6-(cyclopropanecarboxamido)-N-(methyl-d3)-4-((5-methyl-2-(methyl-d3)-4,5-dihydro-2H-pyrazolo[4,3-c]quinolin-6-yl)amino)nicotinamide], the IC50 in experiment [1] is under 0.03 µM; in experiment [2] it was under 0.03 µM; in experiment [3], over 1 µM; in experiment [4], over 1 µM; against JAK3 kinase domain (JH1) it was over 1 µM; on JAK1 kinase domain (JH1), over 1 µM. The IC50 at JAK2 kinase domain (JH1) and against TYK2 kinase domain (JH1) was over 1 µM each time.

Take `[2H]C([2H])([2H])NC(=O)c1cnc(Nc2cc(C)nc(C)n2)cc1Nc1cccc2c1OCc1cn(C)nc1-2` [Compound 9, 6-((2,6-dimethylpyrimidin-4-yl)amino)-N-(methyl-d3)-4-((2-methyl-2,4-dihydrochromeno[4,3-c]pyrazol-6-yl)amino)nicotinamide]: the IC50 in experiment [1] was 0.03 to 0.3 µM; in experiment [2] it was under 0.03 µM; in experiment [3], 0.3 to 1 µM; in experiment [4] it was over 1 µM; at JAK3 kinase domain (JH1), over 1 µM; on JAK1 kinase domain (JH1), over 1 µM. Besides, the IC50 against JAK2 kinase domain (JH1) and against TYK2 kinase domain (JH1) was over 1 µM each time.

On to `[2H]C([2H])([2H])NC(=O)c1nnc(NC(=O)C2CC2)cc1Nc1cccc2c1N(C)Cc1c[nH]nc1-2` [Compound 27, 6-(cyclopropanecarboxamido)-N-(methyl-d3)-4-((5-methyl-4,5-dihydro-2H-pyrazolo[4,3-c]quinolin-6-yl)amino)pyridazine-3-carboxamide], for which the IC50 is under 0.03 µM in experiment [1]; under 0.03 µM in experiment [2]; 0.03 to 0.3 µM in experiment [3]; over 1 µM in experiment [4]; over 1 µM at JAK3 kinase domain (JH1); over 1 µM at JAK1 kinase domain (JH1). The IC50 against JAK2 kinase domain (JH1) and at TYK2 kinase domain (JH1) was over 1 µM throughout.

`[2H]C([2H])([2H])NC(=O)c1cnc(NC(=O)C2CC2)cc1Nc1nccc2c1N(C([2H])([2H])[2H])Cc1cn(C)nc1-2` [Compound 66, 6-(cyclopropanecarboxamido)-N-(methyl-d3)-4-((2-methyl-5-(methyl-d3)-4,5-dihydro-2H-pyrazolo[4,3-c][1,7]naphthyridin-6-yl)amino)nicotinamide]: the IC50 in experiment [1] was under 0.03 µM; in experiment [2] it was under 0.03 µM; in experiment [3], 0.3 to 1 µM; in experiment [4], over 1 µM; on JAK3 kinase domain (JH1), over 1 µM; on JAK1 kinase domain (JH1), over 1 µM. Moreover, the IC50 at JAK2 kinase domain (JH1) and on TYK2 kinase domain (JH1) was over 1 µM each time.

Consider `[2H]C([2H])([2H])NC(=O)c1nnc(NC(=O)C2CC2)cc1Nc1cccc2c1N(C)Cc1cn(C([2H])([2H])[2H])nc1-2` [Compound 20, 6-(cyclopropanecarboxamido)-N-(methyl-d3)-4-((5-methyl-2-(methyl-d3)-4,5-dihydro-2H-pyrazolo[4,3-c]quinolin-6-yl)amino)pyridazine-3-carboxamide], for which the concentration for half-maximal inhibition (IC50) was under 0.03 µM in experiment [1]; under 0.03 µM in experiment [2]; 0.03 to 0.3 µM in experiment [3]; 0.3 to 1 µM in experiment [4]; over 1 µM against JAK3 kinase domain (JH1); over 1 µM at JAK1 kinase domain (JH1). The IC50 against JAK2 kinase domain (JH1) and at TYK2 kinase domain (JH1) was over 1 µM throughout.

Consider `CNC(=O)c1nnc(NC(=O)C2CC2)cc1Nc1cccc2c1OCc1cn(C)nc1-2` [Compound 2, 6-(cyclopropanecarboxamido)-N-methyl-4-((2-methyl-2,4-dihydrochromeno [4,3-c]pyrazol-6-yl)amino)pyridazine-3-carboxamide], for which the IC50 is 0.3 to 1 µM in experiment [1]; 0.03 to 0.3 µM in experiment [2]; 0.3 to 1 µM in experiment [3]; over 1 µM in experiment [4]; over 1 µM against JAK3 kinase domain (JH1); over 1 µM on JAK1 kinase domain (JH1). Moreover, the IC50 on JAK2 kinase domain (JH1) and against TYK2 kinase domain (JH1) was over 1 µM each time.

With `[2H]C([2H])([2H])NC(=O)c1cnc(Nc2ccc(F)cn2)cc1Nc1cccc2c1OCc1cn(C)nc1-2` [Compound 7, 6-((5-fluoropyridin-2-yl)amino)-N-(methyl-d3)-4-((2-methyl-2,4-dihydrochromeno[4,3-c]pyrazol-6-yl)amino)nicotinamide], the IC50 in experiment [1] was 0.3 to 1 µM; in experiment [2], 0.03 to 0.3 µM; in experiment [3] it was 0.3 to 1 µM; in experiment [4] it was over 1 µM; on JAK3 kinase domain (JH1) it was over 1 µM; at JAK1 kinase domain (JH1), over 1 µM. Moreover, the IC50 on JAK2 kinase domain (JH1) and on TYK2 kinase domain (JH1) was over 1 µM throughout.

Turning to `CNC(=O)c1nnc(Nc2ccc(F)cn2)cc1Nc1cccc2c1OCc1cnn(C)c1-2` [Compound 49, 6-((5-fluoropyridin-2-yl)amino)-N-methyl-4-((1-methyl-1,4-dihydrochromeno[4,3-c]pyrazol-6-yl)amino)pyridazine-3-carboxamide], the IC50 is over 1 µM in experiment [1]; 0.03 to 0.3 µM in experiment [2]; under 0.03 µM in experiment [3]; 0.3 to 1 µM in experiment [4]; over 1 µM against JAK3 kinase domain (JH1); over 1 µM on JAK1 kinase domain (JH1). Also, the IC50 against JAK2 kinase domain (JH1) and against TYK2 kinase domain (JH1) was over 1 µM throughout.

Turning to `CN1Cc2cn(C)nc2-c2cccc(Nc3cc(NC(=O)C4CC4)ncc3C(N)=O)c21` [Compound 17, 6-(cyclopropanecarboxamido)-4-((2,5-dimethyl-4,5-dihydro-2H-pyrazolo[4,3-c]quinolin-6-yl)amino)nicotinamide], the IC50 (in experiment [1]; in experiment [2]; in experiment [3]; in experiment [4]; on JAK3 kinase domain (JH1); on JAK1 kinase domain (JH1)) was under 0.03 µM throughout. Moreover, the IC50 was under 0.03 µM against JAK2 kinase domain (JH1) and 0.03 to 0.3 µM against TYK2 kinase domain (JH1).

With `Cn1cc2c(n1)-c1cccc(Nc3cc(Nc4ccc(F)cn4)nnc3C(N)=O)c1OC2` [Compound 8, 6-((5-fluoropyridin-2-yl)amino)-4-((2-methyl-2,4-dihydrochromeno[4,3-c]pyrazol-6-yl)amino)pyridazine-3-carboxamide], the IC50 in experiment [1] was 0.03 to 0.3 µM; in experiment [2] it was under 0.03 µM; in experiment [3] it was under 0.03 µM; in experiment [4] it was 0.3 to 1 µM; against JAK3 kinase domain (JH1), over 1 µM; on JAK1 kinase domain (JH1), over 1 µM. Also, the IC50 against JAK2 kinase domain (JH1) is 0.3 to 1 µM; against TYK2 kinase domain (JH1) it was over 1 µM.
